# From publication PMC6774872 (Cancer research, 2019)
# Test system: lactate dehydrogenase A (LDHA); measured as cellular LDH activity
# Assay: LDH activity
# Assay type: cell-based
substance,measurement,value
NCI-737,IC50,~100 nM
